#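 The compound was tested at five concentrations on cells cultured in 96-well plates, with a 48-hour exposure period. The concentration for 50% growth inhibition is given as GI50.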 The source made the active and inactive calls. Rule as the data show it: active = GI50 up to about 1.1 µM and inactive = higher.
# Tests used:
# Test in all cases: growth of human tumour cells (NCI), 48 h
# EKVX = system: EKVX
# NCI-H23 = system: NCI-H23
# Malme-3M = system: Malme-3M
# SNB-19 = system: SNB-19
# SK-MEL-5 = system: SK-MEL-5
# SN12C = system: SN12C
# 786-0 = system: 786-0
# HCT-15 = system: HCT-15
# A549 = system: A549
# UO-31 = system: UO-31
# M14 = system: M14
# BT-549 = system: BT-549
# T47D = system: T47D
# OVCAR-5 = system: OVCAR-5
# SK-MEL-28 = system: SK-MEL-28
# HOP-92 = system: HOP-92
# U-251 = system: U-251
# NCI/ADR-RES = system: NCI/ADR-RES
# UACC-257 = system: UACC-257
# OVCAR-4 = system: OVCAR-4
# NCI-H460 = system: NCI-H460
# Hs-578T = system: Hs-578T
# HL-60 = system: HL-60
# IGROV-1 = system: IGROV-1
# K562 = system: K562
# A498 = system: A498
# UACC-62 = system: UACC-62
# NCI-H522 = system: NCI-H522
# SW-620 = system: SW-620
# HT-29 = system: HT-29
# MDA-N = system: MDA-N
# CAKI-1 = system: CAKI-1
# MDA-MB-435 = system: MDA-MB-435
# TK-10 = system: TK-10
# ACHN = system: ACHN
# KM12 = system: KM12
# RXF 393 = system: RXF 393
# OVCAR-8 = system: OVCAR-8
# OVCAR-3 = system: OVCAR-3
# SF-295 = system: SF-295
# SR = system: SR
# SK-MEL-2 = system: SK-MEL-2
# RPMI-8226 = system: RPMI-8226
# SF-268 = system: SF-268
# LOX IMVI = system: LOX IMVI
# MOLT-4 = system: MOLT-4
# HOP-62 = system: HOP-62
# PC-3 = system: PC-3
# CCRF-CEM = system: CCRF-CEM
# HCT-116 = system: HCT-116
# MDA-MB-231 = system: MDA-MB-231
# NCI-H226 = system: NCI-H226
# DU-145 = system: DU-145
# SK-OV-3 = system: SK-OV-3
# COLO 205 = system: COLO 205
# SNB-75 = system: SNB-75
# MCF7 = system: MCF7
# SF-539 = system: SF-539
# HCC 2998 = system: HCC 2998
structure (smiles),measurement,setting,value
Cc1ccc(-[n+]2cc([O-])on2)cc1,GI50,EKVX,> 100 µM (inactive)
same,GI50,NCI-H23,> 100 µM (inactive)
same,GI50,Malme-3M,> 100 µM (inactive)
same,GI50,SNB-19,> 100 µM (inactive)
same,GI50,SK-MEL-5,> 100 µM (inactive)
same,GI50,SN12C,> 100 µM (inactive)
same,GI50,786-0,> 100 µM (inactive)
same,GI50,HCT-15,> 100 µM
same,GI50,A549,> 100 µM (inactive)
same,GI50,UO-31,> 100 µM (inactive)
same,GI50,M14,> 100 µM (inactive)
same,GI50,BT-549,> 100 µM (inactive)
same,GI50,T47D,> 100 µM (inactive)
same,GI50,OVCAR-5,> 100 µM (inactive)
same,GI50,SK-MEL-28,> 100 µM (inactive)
same,GI50,HOP-92,64 µM (inactive)
same,GI50,U-251,> 100 µM (inactive)
same,GI50,NCI/ADR-RES,> 100 µM (inactive)
same,GI50,UACC-257,> 100 µM (inactive)
same,GI50,OVCAR-4,> 100 µM (inactive)
same,GI50,NCI-H460,> 100 µM (inactive)
same,GI50,Hs-578T,> 100 µM (inactive)
same,GI50,HL-60,> 100 µM (inactive)
same,GI50,IGROV-1,> 100 µM (inactive)
same,GI50,K562,> 100 µM (inactive)
same,GI50,A498,65.8 µM (inactive)
same,GI50,UACC-62,> 100 µM (inactive)
same,GI50,NCI-H522,> 100 µM (inactive)
same,GI50,SW-620,> 100 µM (inactive)
same,GI50,HT-29,> 100 µM (inactive)
same,GI50,MDA-N,> 100 µM (inactive)
same,GI50,CAKI-1,> 100 µM (inactive)
same,GI50,MDA-MB-435,> 100 µM (inactive)
same,GI50,TK-10,> 100 µM (inactive)
same,GI50,ACHN,> 100 µM (inactive)
same,GI50,KM12,> 100 µM (inactive)
same,GI50,RXF 393,> 100 µM (inactive)
same,GI50,OVCAR-8,> 100 µM (inactive)
same,GI50,OVCAR-3,> 100 µM (inactive)
same,GI50,SF-295,> 100 µM (inactive)
same,GI50,SR,> 100 µM (inactive)
same,GI50,SK-MEL-2,> 100 µM (inactive)
same,GI50,RPMI-8226,> 100 µM (inactive)
same,GI50,SF-268,> 100 µM (inactive)
same,GI50,LOX IMVI,> 100 µM (inactive)
same,GI50,MOLT-4,> 100 µM (inactive)
same,GI50,HOP-62,> 100 µM (inactive)
same,GI50,PC-3,> 100 µM (inactive)
same,GI50,CCRF-CEM,> 100 µM (inactive)
same,GI50,HCT-116,> 100 µM (inactive)
same,GI50,MDA-MB-231,> 100 µM (inactive)
same,GI50,NCI-H226,10.1 µM (inactive)
same,GI50,DU-145,> 100 µM (inactive)
C[C@H]1O[C@@H](C(C)(C)C)OC(=O)[C@@H]1C(OC(=O)c1ccccc1)c1cccc2ccccc12 (stereo partly drawn),GI50,EKVX,> 100 µM (inactive)
same,GI50,NCI-H23,> 100 µM (inactive)
same,GI50,Malme-3M,> 100 µM (inactive)
same,GI50,SNB-19,> 100 µM (inactive)
same,GI50,SK-OV-3,> 100 µM (inactive)
same,GI50,SK-MEL-5,> 100 µM (inactive)
same,GI50,SN12C,> 100 µM (inactive)
same,GI50,COLO 205,> 100 µM (inactive)
same,GI50,786-0,> 100 µM (inactive)
same,GI50,HCT-15,> 100 µM
same,GI50,A549,> 100 µM (inactive)
same,GI50,UO-31,> 100 µM (inactive)
same,GI50,SNB-75,> 100 µM (inactive)
same,GI50,M14,> 100 µM (inactive)
same,GI50,BT-549,> 100 µM (inactive)
same,GI50,T47D,64.1 µM (inactive)
same,GI50,OVCAR-5,> 100 µM (inactive)
same,GI50,SK-MEL-28,> 100 µM (inactive)
same,GI50,U-251,> 100 µM (inactive)
same,GI50,MCF7,> 100 µM (inactive)
same,GI50,NCI/ADR-RES,56.1 µM (inactive)
same,GI50,UACC-257,> 100 µM (inactive)
same,GI50,OVCAR-4,> 100 µM (inactive)
same,GI50,NCI-H460,> 100 µM (inactive)
same,GI50,Hs-578T,40.7 µM (inactive)
same,GI50,IGROV-1,> 100 µM (inactive)
same,GI50,K562,> 100 µM (inactive)
same,GI50,UACC-62,> 100 µM (inactive)
same,GI50,NCI-H522,> 100 µM (inactive)
same,GI50,SW-620,> 100 µM (inactive)
same,GI50,HT-29,> 100 µM (inactive)
same,GI50,MDA-N,> 100 µM (inactive)
same,GI50,CAKI-1,> 100 µM (inactive)
same,GI50,SF-539,> 100 µM (inactive)
same,GI50,MDA-MB-435,> 100 µM (inactive)
same,GI50,TK-10,> 100 µM (inactive)
same,GI50,ACHN,> 100 µM (inactive)
same,GI50,KM12,> 100 µM (inactive)
same,GI50,RXF 393,> 100 µM (inactive)
same,GI50,OVCAR-8,> 100 µM (inactive)
same,GI50,OVCAR-3,> 100 µM (inactive)
same,GI50,SF-295,> 100 µM (inactive)
same,GI50,SR,48.4 µM (inactive)
same,GI50,SK-MEL-2,> 100 µM (inactive)
same,GI50,RPMI-8226,> 100 µM (inactive)
same,GI50,SF-268,> 100 µM (inactive)
same,GI50,LOX IMVI,> 100 µM (inactive)
same,GI50,HCC 2998,> 100 µM (inactive)
same,GI50,MOLT-4,> 100 µM (inactive)
same,GI50,HOP-62,> 100 µM (inactive)
same,GI50,PC-3,> 100 µM (inactive)
same,GI50,CCRF-CEM,> 100 µM (inactive)
same,GI50,HCT-116,> 100 µM (inactive)
same,GI50,MDA-MB-231,> 100 µM (inactive)
same,GI50,NCI-H226,8.87 µM (inactive)

# Source: ChEMBL document CHEMBL1201862, “PubChem BioAssay data set” (2004)
